The source of these data is patent publication US20170304195A1, “PHARMACEUTICAL FORMULATIONS FOR THE ORAL DELIVERY OF PEPTIDE OR PROTEIN DRUGS” (Cyprumed GmbH, priority 2014, published 2017).

The conditions of data set [1]: rat, in vivo.
Protocol: (§1) Blood was taken from tail vessels at the time points 0, 10, 20, 40, 60, 90, 120 and 180 min after dosing.
Data set [2] in a line: in vivo. To be noted: Sprague Dawley, rat, sc, 0.1 mg/kg.
Protocol: as §1
A short description of data set [3]: pH of dissolved solid powder mixtures (Example 17). The format is physicochemical.
For data set [4] the following is noted: rat, in vivo. This is another data set of the same source.
Protocol: (§2) Teriparatide (PTH1-34) was dosed subcutaneously in volume of 1 ml/kg (final concentration 0.024 mg/ml teriparatide) to anaesthetized rats. […] Blood was taken from tail vessels at the time points 0, 10, 20, 40, 60, 90, 120 and 180 min after dosing. The teriparatide plasma concentrations were determined using commercial pTH (1-34) human ELISA kit (Biovendor, EU, cat. number RS-1163.0001).
Data set [5] can be described thus: in vivo. Conditions: Sprague Dawley, rat, sc.
Protocol: as §2
The conditions of data set [6]: study comparing aprotinin with aminocaproic acid; cited from earlier work.

Read-outs that look alike come from different tables or passages of the source.

What is called AUC(0-t) is the area under the concentration-time curve up to a stated or last time point. A low value points to low exposure. By Cmax is commonly meant the highest concentration seen after dosing. A word on the Tmax: it is the time from dosing to the highest level. In the case of `CCNC(=O)[C@@H]1CCCN1C(=O)[C@H](CCCNC(=N)N)NC(=O)[C@H](CC(C)C)NC(=O)[C@@H](CC(C)C)NC(=O)[C@H](Cc1ccc(O)cc1)NC(=O)[C@H](CO)NC(=O)[C@H](Cc1c[nH]c2ccccc12)NC(=O)[C@H](Cc1c[nH]cn1)NC(=O)[C@@H]1CCC(=O)N1` [Leuprolide], the F in data set [1] came to 100 ± 19.5%. In the data set “in vivo [2]”, the area under the curve AUC(0-t) is 130 ng·h/mL, the concentration peaked (Cmax) at 78.9 ± 14.7 ng/mL and the Tmax was in the range of 20 to 40 min.
As a reminder, the half-life is the time in which the quantity being followed falls by half. Low values mean fast loss, high ones slow loss. On to `CC[C@H](C)[C@H](NC(=O)[C@H](CCC(=O)O)NC(=O)[C@H](CO)NC(=O)[C@@H](NC(=O)[C@@H](N)CO)C(C)C)C(=O)N[C@@H](CCC(N)=O)C(=O)N[C@@H](CC(C)C)C(=O)N[C@@H](CCSC)C(=O)N[C@@H](Cc1cnc[nH]1)C(=O)N[C@@H](CC(N)=O)C(=O)N[C@@H](CC(C)C)C(=O)NCC(=O)N[C@@H](CCCCN)C(=O)N[C@@H](Cc1cnc[nH]1)C(=O)N[C@@H](CC(C)C)C(=O)N[C@@H](CC(N)=O)C(=O)N[C@@H](CO)C(=O)N[C@@H](CCSC)C(=O)N[C@@H](CCC(=O)O)C(=O)N[C@@H](CCCN=C(N)N)C(=O)N[C@H](C(=O)N[C@@H](CCC(=O)O)C(=O)N[C@@H](Cc1c[nH]c2ccccc12)C(=O)N[C@@H](CC(C)C)C(=O)N[C@@H](CCCN=C(N)N)C(=O)N[C@@H](CCCCN)C(=O)N[C@@H](CCCCN)C(=O)N[C@@H](CC(C)C)C(=O)N[C@@H](CCC(N)=O)C(=O)N[C@@H](CC(=O)O)C(=O)N[C@H](C(=O)N[C@@H](Cc1cnc[nH]1)C(=O)N[C@@H](CC(N)=O)C(=O)N[C@@H](Cc1ccccc1)C(=O)O)C(C)C)C(C)C` [PTH(1-34), Teriparatide], for which the “Dissolution pH in 5 ml Aqua purificata” value amounted to 3.6 in data set [3] (CuSO4 10 mg, lauroyl carnitine 10 mg, MCC 50 mg, no buffer); 4.4 in data set [3] (CuSO4 10 mg, lauroyl carnitine 10 mg, gelatin capsule 50 mg, no buffer); 6.5 in data set [3] (CuSO4 10 mg, lauroyl carnitine 10 mg, lactose 50 mg, 10 mg TRIS); 3.2 in data set [3] (CuSO4 10 mg, lauroyl carnitine 10 mg, lactose 50 mg, buffer cell empty); 5.0 in data set [3] (CuSO4 10 mg, sucrose laurate 10 mg, lactose 50 mg, no buffer); 6.3 in data set [3] (ZnCl2 10 mg, lauroyl carnitine 10 mg, MCC 50 mg, 5 mg TRIS). The “Dissolution pH in 5 ml Aqua purificata” value is given as 3.5 in data set [3] (ZnCl2 10 mg, lauroyl carnitine 10 mg, MCC 50 mg, no buffer); 6.8 in data set [3] (ZnCl2 10 mg, lauroyl carnitine 10 mg, gelatin capsule 50 mg, 10 mg TRIS); 4.3 in data set [3] (ZnCl2 10 mg, lauroyl carnitine 10 mg, gelatin capsule 50 mg, no buffer); 7.1 in data set [3] (ZnCl2 10 mg, lauroyl carnitine 10 mg, lactose 50 mg, 10 mg TRIS); 2.9 in data set [3] (ZnCl2 10 mg, lauroyl carnitine 10 mg, lactose 50 mg, buffer cell empty); 7.5 in data set [3] (ZnSO4 10 mg, lauroyl carnitine 10 mg, lactose 50 mg, 10 mg TRIS). For the same compound, the “Dissolution pH in 5 ml Aqua purificata” value in data set [3] (ZnSO4 10 mg, lauroyl carnitine 10 mg, lactose 50 mg, no buffer) turned out to be 3.1; in data set [3] (ZnSO4 10 mg, sucrose laurate 10 mg, lactose 50 mg, no buffer), 6.5. Besides, in data set [4], the F stood at 100 ± 23%. For the same compound, the “plasma half-life of PTH(1-34) compared to s.c. administration, in words” value in data set [4] is given as “increased plasma half-life”. In addition, the Tmax in “in vivo [5]” is 10 min. For the same compound, the half-life in the data set “in vivo [5]” was 44 ± 8 min.
For Aprotinin, in data set [6], the increase of mortality is on record as 64%.
